Experiments:
[1] = Liquid, Ebulliometric method (Recirculating still)
[2] = refractive index (Na D-line) (dimensionless); settings: 298.15 K; 101.33 kPa; Liquid; Standard Abbe refractometry

ClC(Cl)C(Cl)Cl [1,1,2,2-tetrachloroethane]
[1]
Settings	vapor or sublimation pressure [kPa]
343.15 K	7.24
353.15 K	11.23
363.15 K	16.65
373.15 K	24.17
379.75 K	30.48
389.55 K	42.33
396.35 K	52.48
401.55 K	61.35
405.55 K	69.05
409.55 K	77.59
413.45 K	86.66
416.45 K	94.27
418.95 K	101.08

Settings	refractive index
[2]	1.492

O=C1CCCCC1 [cyclohexanone]
[1]
Settings	vapor or sublimation pressure [kPa]
343.15 K	5.57
353.15 K	8.6
363.15 K	13.07
373.15 K	18.9
385.45 K	29.1
394.05 K	38.41
401.35 K	48.2
407.35 K	57.43
414.75 K	70.59
419.8 K	81.35
424.05 K	91.55
427.8 K	101.1

Settings	refractive index
[2]	1.4481

O=C1CCCC1 [cyclopentanone]
[1]
Settings	vapor or sublimation pressure [kPa]
323.15 K	5.31
333.15 K	8.49
343.15 K	13.03
353.15 K	19.61
358.85 K	24.48
363.15 K	28.61
363.45 K	29.04
372.25 K	39.48
378.35 K	48.32
384.15 K	57.77
388.85 K	67.18
393.25 K	76.67
397.65 K	87.37
399.75 K	92.98
403.05 K	101.76

Settings	refractive index
[2]	1.4349
